From PubChem BioAssay (NCI)
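96-well plates; 48 h exposure; 5 concentrations. Endpoints by linear interpolation between flanking doses. Not reached: highest tested concentration assigned. Here, GI50 denotes the concentration required for 50% inhibition of growth. At the TGI there is no net growth.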

Legend:
Experiment in all cases: growth of human tumour cells (NCI), 48 h
OVCAR-4 ovarian = tested on: OVCAR-4 ovarian
T-47D breast = tested on: T-47D breast
HCC-2998 colon = tested on: HCC-2998 colon
UACC-62 melanoma = tested on: UACC-62 melanoma
HCT-116 colon = tested on: HCT-116 colon
OVCAR-3 ovarian = tested on: OVCAR-3 ovarian
EKVX NSCLC = tested on: EKVX NSCLC
SNB-75 CNS = tested on: SNB-75 CNS
SK-MEL-2 melanoma = tested on: SK-MEL-2 melanoma
CAKI-1 renal = tested on: CAKI-1 renal

Structure (SMILES)	GI50 (OVCAR-4 ovarian)	TGI (OVCAR-4 ovarian)	GI50 (T-47D breast)	TGI (T-47D breast)	GI50 (HCC-2998 colon)	TGI (HCC-2998 colon)	GI50 (UACC-62 melanoma)	TGI (UACC-62 melanoma)	GI50 (HCT-116 colon)	TGI (HCT-116 colon)	GI50 (OVCAR-3 ovarian)	TGI (OVCAR-3 ovarian)	GI50 (EKVX NSCLC)	TGI (EKVX NSCLC)	GI50 (SNB-75 CNS)	TGI (SNB-75 CNS)	GI50 (SK-MEL-2 melanoma)	TGI (SK-MEL-2 melanoma)	GI50 (CAKI-1 renal)	TGI (CAKI-1 renal)
COc1cccc(/C=C/C(=O)c2cc3c(N)c(C(=O)Nc4cccc5ccccc45)sc3nc2C)c1	2.65 µM	> 50 µM	1.22 µM	4.45 µM	1.14 µM	2.79 µM	1.09 µM	4.74 µM	0.619 µM	1.6 µM	0.892 µM	2.07 µM	1.87 µM	> 50 µM	1.02 µM	3.15 µM	1.71 µM	> 50 µM	1.6 µM	6.34 µM
O=C(Cc1csc2nc(-c3ccc(Br)cc3)cn12)N/N=C/c1ccc(O)cc1	> 100 µM	> 100 µM	31.8 µM	> 100 µM	14.6 µM	29.4 µM	9.11 µM	23.5 µM	10.5 µM	24.2 µM	24.2 µM	49.4 µM	11.5 µM	65.9 µM	> 100 µM	> 100 µM	26.1 µM	95.9 µM	14.9 µM	49.3 µM
N=C1C=C(N)C(=O)c2[nH]c(=O)ccc21		2.74 µM		4.88 µM		35.8 µM		4.61 µM		2.48 µM		2.96 µM		3.55 µM				4.48 µM		13 µM
C/C=C1\C(=O)OC2CCN3CCC(COC(=O)C(C)(O)C(C)C1O)C23 (stereo unspecified)		> 100 µM		> 100 µM		> 100 µM		> 100 µM		> 100 µM				> 100 µM		> 100 µM		> 100 µM		> 100 µM
O=C(Nc1ccccc1C(=O)N/N=C(\c1ccccc1)c1ccccn1)c1ccc(F)cc1	0.207 µM	> 100 µM	0.394 µM	> 100 µM	0.321 µM	> 100 µM	0.308 µM	2.03 µM	0.266 µM	> 100 µM	0.211 µM	> 100 µM	0.169 µM	> 100 µM	4.81 µM	> 100 µM	7.01 µM	> 100 µM	0.42 µM	> 100 µM
O=C1CN(/N=C/c2ccc(-c3ccc(F)cc3)o2)C(=O)N1				> 100 µM		> 100 µM		> 100 µM		> 100 µM		> 100 µM		> 100 µM				> 100 µM		> 100 µM
CC1(C)CC[C@]2(C(N)=O)CC[C@]3(C)C(=CC[C@@H]4[C@@]5(C)C/C(=C/c6ccncc6)C(=O)C(C)(C)[C@@H]5CC[C@]43C)[C@@H]2C1	3 µM	> 100 µM	2.55 µM	12.4 µM	1.87 µM	3.45 µM	1.61 µM	3.34 µM	1.49 µM	2.99 µM	1.87 µM	3.45 µM	2.44 µM	9.46 µM	2.48 µM	8.22 µM	1.92 µM	3.97 µM		
COc1ccc(C(O)CC(O)(C(F)(F)F)C(F)(F)F)cc1 (stereo unspecified)		> 100 µM		> 100 µM		> 100 µM		87.4 µM		38.1 µM		69.8 µM		> 100 µM		34.3 µM		40.8 µM		55.1 µM
COc1cccc(C2NC(=S)NC(C)=C2C(=O)Nc2ccc(Cl)c(Cl)c2)c1 (stereo unspecified)	12.8 µM	> 50 µM	14.4 µM	> 50 µM			8.2 µM	15.9 µM	8.47 µM	15.9 µM	8.88 µM	18.2 µM	5.63 µM	14.3 µM	34.8 µM	> 50 µM	15.7 µM	> 50 µM	9.69 µM	22 µM
CC1=C(C(=O)Nc2ccc(Cl)c(Cl)c2)C(c2ccccc2O)NC(=O)N1 (stereo unspecified)	42.7 µM	> 50 µM	> 50 µM	> 50 µM			35.1 µM	> 50 µM			19.1 µM	> 50 µM	28.6 µM	> 50 µM	25.9 µM	> 50 µM	> 50 µM	> 50 µM	> 50 µM	> 50 µM
CC(=O)C1C(=O)N(C(C)C)C[C@@H]2CCC(=O)C[C@H]12 (stereo partly specified)		> 100 µM				> 100 µM		> 100 µM		> 100 µM		> 100 µM		> 100 µM		> 100 µM		> 100 µM		> 100 µM
C#CCN(Cc1ccc2nc(N)[nH]c(=O)c2c1)c1ccc(C(=O)NC(CCC(=O)O)C(=O)O)cc1 (stereo unspecified)				> 100 µM		> 100 µM				> 100 µM		> 100 µM		> 100 µM						> 100 µM
N#CC1C=Cc2ccccc2N1C(=O)Oc1ccccc1 (stereo unspecified)		> 100 µM		> 100 µM		> 100 µM		> 100 µM		> 100 µM				> 100 µM		> 100 µM		64.3 µM		> 100 µM
Cc1cc([N+](=O)[O-])c(C)c(Br)c1C		> 100 µM		> 100 µM				> 100 µM		> 100 µM		> 100 µM		> 100 µM		> 100 µM		> 100 µM		> 100 µM
